Reference: ChEMBL document CHEMBL3991601, “The target landscape of clinical kinase drugs” (Science, 2017)
The source made the active and inactive calls.

Legend:
[1] = target: T1, Cytochrome c1, heme protein, mitochondrial (Homo sapiens, UniProt P08574)
T1 sequence (P08574 whole entry): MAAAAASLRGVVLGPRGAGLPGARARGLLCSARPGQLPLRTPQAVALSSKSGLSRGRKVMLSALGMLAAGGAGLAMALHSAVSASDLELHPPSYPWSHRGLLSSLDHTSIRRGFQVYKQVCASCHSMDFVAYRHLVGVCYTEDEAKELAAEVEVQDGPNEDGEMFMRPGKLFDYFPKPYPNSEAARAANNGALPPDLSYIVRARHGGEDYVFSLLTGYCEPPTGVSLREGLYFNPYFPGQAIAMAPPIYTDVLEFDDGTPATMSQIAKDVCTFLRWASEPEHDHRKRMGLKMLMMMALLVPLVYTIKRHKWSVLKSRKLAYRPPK

[2] = target: T2, Heme oxygenase 2 (Homo sapiens, UniProt P30519)
T2 sequence (P30519 whole entry): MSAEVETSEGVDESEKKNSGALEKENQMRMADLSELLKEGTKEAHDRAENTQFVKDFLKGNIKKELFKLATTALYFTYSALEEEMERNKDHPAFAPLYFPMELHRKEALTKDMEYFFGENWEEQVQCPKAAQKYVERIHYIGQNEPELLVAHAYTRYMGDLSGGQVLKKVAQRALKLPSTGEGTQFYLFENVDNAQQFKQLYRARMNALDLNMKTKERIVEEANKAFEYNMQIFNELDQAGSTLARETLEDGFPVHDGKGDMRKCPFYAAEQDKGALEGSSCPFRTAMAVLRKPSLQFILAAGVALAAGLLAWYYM

[3] = target: T3, Tyrosine--tRNA ligase, cytoplasmic (Homo sapiens, UniProt P54577)
T3 sequence (P54577 whole entry): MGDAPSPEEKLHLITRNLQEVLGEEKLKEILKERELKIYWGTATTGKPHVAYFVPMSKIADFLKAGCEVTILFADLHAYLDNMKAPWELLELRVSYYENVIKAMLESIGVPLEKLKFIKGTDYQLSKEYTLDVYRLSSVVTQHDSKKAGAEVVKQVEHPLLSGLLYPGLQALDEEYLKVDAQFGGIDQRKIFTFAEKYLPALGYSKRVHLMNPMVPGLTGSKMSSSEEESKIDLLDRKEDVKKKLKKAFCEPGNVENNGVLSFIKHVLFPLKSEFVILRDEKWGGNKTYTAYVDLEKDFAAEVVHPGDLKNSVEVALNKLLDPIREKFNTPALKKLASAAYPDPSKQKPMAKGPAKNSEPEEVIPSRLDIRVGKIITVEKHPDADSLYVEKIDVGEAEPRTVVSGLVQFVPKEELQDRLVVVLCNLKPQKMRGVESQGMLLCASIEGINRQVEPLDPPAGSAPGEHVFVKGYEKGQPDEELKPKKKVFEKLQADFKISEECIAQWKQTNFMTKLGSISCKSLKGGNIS

[4] = target: T4, Delta(24)-sterol reductase (Homo sapiens, UniProt Q15392)
T4 sequence (Q15392 whole entry): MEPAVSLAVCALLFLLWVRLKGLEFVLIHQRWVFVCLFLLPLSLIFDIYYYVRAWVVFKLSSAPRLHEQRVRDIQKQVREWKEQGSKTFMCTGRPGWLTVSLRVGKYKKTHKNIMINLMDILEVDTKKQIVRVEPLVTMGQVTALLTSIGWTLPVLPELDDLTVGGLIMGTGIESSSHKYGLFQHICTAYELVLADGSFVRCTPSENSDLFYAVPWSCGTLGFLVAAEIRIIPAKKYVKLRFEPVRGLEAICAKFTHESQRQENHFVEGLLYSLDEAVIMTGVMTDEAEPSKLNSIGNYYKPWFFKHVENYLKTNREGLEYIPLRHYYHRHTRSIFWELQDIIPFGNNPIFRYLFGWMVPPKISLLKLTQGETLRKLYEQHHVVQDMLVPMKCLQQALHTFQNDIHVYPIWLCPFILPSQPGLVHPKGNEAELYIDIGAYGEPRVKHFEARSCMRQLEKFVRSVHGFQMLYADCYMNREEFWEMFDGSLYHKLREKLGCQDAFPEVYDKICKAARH

[5] = target: Maternal embryonic leucine zipper kinase (Homo sapiens, UniProt Q14680)
Maternal embryonic leucine zipper kinase, sequence (Q14680 whole entry): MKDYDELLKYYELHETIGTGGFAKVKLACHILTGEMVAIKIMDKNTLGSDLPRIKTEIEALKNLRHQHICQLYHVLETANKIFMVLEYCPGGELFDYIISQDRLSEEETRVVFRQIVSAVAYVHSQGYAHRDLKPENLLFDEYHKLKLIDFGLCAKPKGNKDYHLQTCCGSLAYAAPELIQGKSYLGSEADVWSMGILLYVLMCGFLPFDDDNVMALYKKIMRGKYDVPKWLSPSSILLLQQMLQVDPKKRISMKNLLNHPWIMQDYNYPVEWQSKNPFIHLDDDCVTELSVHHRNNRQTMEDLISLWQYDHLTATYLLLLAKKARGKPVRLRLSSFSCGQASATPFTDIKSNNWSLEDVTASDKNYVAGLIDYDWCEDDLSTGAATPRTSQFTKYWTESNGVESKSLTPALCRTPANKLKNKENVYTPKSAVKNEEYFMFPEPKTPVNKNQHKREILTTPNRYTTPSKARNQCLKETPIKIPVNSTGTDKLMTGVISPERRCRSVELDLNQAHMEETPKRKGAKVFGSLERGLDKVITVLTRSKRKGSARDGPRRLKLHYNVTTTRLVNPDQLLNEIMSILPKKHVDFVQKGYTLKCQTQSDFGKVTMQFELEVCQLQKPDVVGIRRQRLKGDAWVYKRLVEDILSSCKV

[6] = target: T5, ATP-dependent 6-phosphofructokinase, platelet type (Homo sapiens, UniProt Q01813)
T5 sequence (Q01813 whole entry): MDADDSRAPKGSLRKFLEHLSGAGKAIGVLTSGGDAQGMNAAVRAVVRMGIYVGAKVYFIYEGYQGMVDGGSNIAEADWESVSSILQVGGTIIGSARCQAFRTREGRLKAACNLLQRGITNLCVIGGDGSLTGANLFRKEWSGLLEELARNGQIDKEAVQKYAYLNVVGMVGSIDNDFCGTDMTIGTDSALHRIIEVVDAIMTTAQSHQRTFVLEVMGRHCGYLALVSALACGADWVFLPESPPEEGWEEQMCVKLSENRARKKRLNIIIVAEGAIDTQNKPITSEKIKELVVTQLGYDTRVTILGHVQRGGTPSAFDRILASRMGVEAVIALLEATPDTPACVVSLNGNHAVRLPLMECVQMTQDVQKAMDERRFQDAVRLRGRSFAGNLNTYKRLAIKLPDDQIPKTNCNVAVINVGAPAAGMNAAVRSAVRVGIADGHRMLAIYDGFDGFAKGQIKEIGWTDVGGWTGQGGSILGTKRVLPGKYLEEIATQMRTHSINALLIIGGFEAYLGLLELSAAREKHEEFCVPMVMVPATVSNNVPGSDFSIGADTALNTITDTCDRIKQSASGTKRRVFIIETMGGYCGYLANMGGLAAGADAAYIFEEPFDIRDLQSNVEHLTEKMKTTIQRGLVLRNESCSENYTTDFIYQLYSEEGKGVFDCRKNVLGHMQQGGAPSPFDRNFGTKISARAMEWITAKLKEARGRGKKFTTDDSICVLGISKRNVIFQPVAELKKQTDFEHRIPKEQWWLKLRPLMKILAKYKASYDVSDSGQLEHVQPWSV
Also: in the data inactive means no Kd found up to 30 µM.

| Kd [1] | Kd [2] | Kd [3] | Kd [4] | Kd [5] | Kd [6] | SMILES |
| --- | --- | --- | --- | --- | --- | --- |
| > 30 µM (inactive) | > 30 µM (inactive) | > 30 µM (inactive) | > 30 µM (inactive) | > 30 µM (inactive) | > 30 µM (inactive) | O=C(NOC[C@H](O)CO)c1ccc(F)c(F)c1Nc1ccc(I)cc1F [MIRDAMETINIB] |
| > 30 µM (inactive) | > 30 µM (inactive) | > 30 µM (inactive) | > 30 µM (inactive) | > 30 µM (inactive) | > 30 µM (inactive) | COc1cccc2cc(-c3nc([C@H]4CC[C@H](C(=O)O)CC4)n4ncnc(N)c34)[nH]c12 [OSI-027] |
| > 30 µM (inactive) | > 30 µM (inactive) | > 30 µM (inactive) | > 30 µM (inactive) | > 30 µM (inactive) | > 30 µM (inactive) | O=C(NC[C@H](O)CO)c1ccncc1Nc1ccc(I)cc1F [PIMASERTIB] |
| > 30 µM (inactive) | > 30 µM (inactive) | > 30 µM (inactive) | > 30 µM (inactive) | > 30 µM (inactive) | > 30 µM (inactive) | C=CC(=O)Nc1cccc(Nc2nc(Nc3ccc(N4CCN(C(C)=O)CC4)cc3OC)ncc2C(F)(F)F)c1 [ROCILETINIB] |
| > 30 µM (inactive) | > 30 µM (inactive) | > 30 µM (inactive) | > 30 µM (inactive) | > 30 µM (inactive) | > 30 µM (inactive) | O=C(O)c1ccc2c(c1)nc(Nc1cccc(Cl)c1)c1ccncc12 [SILMITASERTIB] |
| > 30 µM (inactive) | > 30 µM (inactive) | > 30 µM (inactive) | > 30 µM (inactive) | > 30 µM (inactive) | > 30 µM (inactive) | CC(C)(O)CC(=O)NCCn1ccc2ncnc(Nc3ccc(Oc4cccc(C(F)(F)F)c4)c(Cl)c3)c21 [TAK-285] |
| > 30 µM (inactive) | > 30 µM (inactive) | > 30 µM (inactive) | > 30 µM (inactive) | > 30 µM (inactive) | > 30 µM (inactive) | Cc1cc(C(=O)Nc2cc(Oc3ccc4nc(NC(=O)C5CC5)cn4n3)ccc2C)n(C)n1 [TAK-593] |
| > 30 µM (inactive) | > 30 µM (inactive) | > 30 µM (inactive) | > 30 µM (inactive) | > 30 µM (inactive) | > 30 µM (inactive) | O[C@H]1CC[C@H](Nc2ncc3nc(Nc4c(F)cc(F)cc4F)n([C@H]4CCOC4)c3n2)CC1 [TANZISERTIB] |
| > 30 µM (inactive) | > 30 µM (inactive) | > 30 µM (inactive) | > 30 µM (inactive) | > 30 µM (inactive) | > 30 µM (inactive) | CNC(=O)c1cc(COc2nnc(Nc3ccc(Cl)cc3)c3ccoc23)ccn1 [TELATINIB] |
| > 30 µM (inactive) | > 30 µM (inactive) | > 30 µM (inactive) | > 30 µM (inactive) | > 30 µM (inactive) | > 30 µM (inactive) | C[C@@H]1COC(Nc2ccc3ncnc(Nc4ccc(OCc5nccs5)c(Cl)c4)c3c2)=N1 [VARLITINIB] |
| > 30 µM (inactive) | > 30 µM (inactive) | > 30 µM (inactive) | > 30 µM (inactive) | > 30 µM (inactive) | 0.983 µM (active) | CNC(=O)c1cccc(-c2ccc3c(N4CCOC[C@@H]4C)nc(N4CCOC[C@@H]4C)nc3n2)c1 [VISTUSERTIB] |
| > 30 µM (inactive) | > 30 µM (inactive) | > 30 µM (inactive) | > 30 µM (inactive) | > 30 µM (inactive) | > 30 µM (inactive) | NC(=O)c1ccc(N(C(N)=O)c2c(F)cccc2F)nc1-c1ccc(F)cc1F [VX-702] |
| > 30 µM (inactive) | > 30 µM (inactive) | > 30 µM (inactive) | > 30 µM (inactive) | > 30 µM (inactive) | > 30 µM (inactive) | COc1cc2ncnc(Nc3ccc(O)cc3)c2cc1OC [WHI-P131] |

| SMILES | Kd [1] | Kd [2] | Kd [3] | Kd [4] | Kd [5] | Kd [6] |
| --- | --- | --- | --- | --- | --- | --- |
| C=CC(=O)Nc1cc(Nc2nccc(-c3cn(C)c4ccccc34)n2)c(OC)cc1N(C)CCN(C)C [OSIMERTINIB] | > 30 µM (inactive) | > 30 µM (inactive) | > 30 µM (inactive) | > 30 µM (inactive) | > 30 µM (inactive) | > 30 µM (inactive) |
| COCCN1CCN(Cc2ccc(-c3n[nH]c4c3C(=O)c3c(NC(=O)NN5CCOCC5)cccc3-4)cc2)CC1 [RGB-286638] | > 30 µM (inactive) | > 30 µM (inactive) | > 30 µM (inactive) | > 30 µM (inactive) | 1.46 µM (active) | > 30 µM (inactive) |
| CN1CCN(c2nc(C3=C(c4c[nH]c5ccccc45)C(=O)NC3=O)c3ccccc3n2)CC1 [SOTRASTAURIN] | > 30 µM (inactive) | > 30 µM (inactive) | > 30 µM (inactive) | > 30 µM (inactive) | > 30 µM (inactive) | > 30 µM (inactive) |
